Bounds are passed on as bounds.

What all share (type): biochemical
Experiment [1] deals with LCK (Lymphoid T-cell protein tyrosine kinase) (Homo sapiens, UniProt P06239). Put plainly: poly (Glu, Tyr) 4:1 ELISA, LCK. The protocol: (§1) To further examine the inhibition characteristics of DBH (and its variants) to a variety of cellular components, a poly (Glu, Tyr) 4:1 ELISA was performed. Hymenialdisine (H), DBH (as marine sponge extracts: see Chipman and Faulkner, 1997), and three variant forms of synthetic DBH: the free base form of DBH (DBH-2FB), a trifluoroacetic acid salt form of DBH (DBH-2S), and a methanesulfonic acid salt form of DBH (DBH 1) were solubilized in DMSO, and tested for the ability to inhibit; ZAP-70 (ζ-associated polypeptide of 70 kDa) protein tyrosine kinase, BTK (Bruton's agarnrnaglobulinaemia tyrosine kinase), JAK3 (Janus kinase 3) protein tyrosine kinase, LCK (Lymphoid T-cell protein tyrosine kinase), and IGFR (Insulin-like growth factor receptor) protein tyrosine kinase.
(§2) Maxisorb microtiter plates (Nalge Nunc International, Rochester, N.Y.) were coated with 1 mg/ml Poly(Glu,Tyr) 4:1 (Sigma, St. Louis, Mo.) solubilized in phosphate buffered saline (PBS), 0.02% sodium azide. On the day of the assay, microtiter plates were washed 4× with TBS-Tween (25 mM Tris pH 8.0, 150 mM NaCl, 0.05% Tween 20) using a Skatron plate washer (Skatron Instruments, Sterling, Va.). 200 μl of sterile blocking buffer (3% BSA in PBS, 0.02% sodium azide) was added to each well, and the microtiter plates were incubated at 37° C. for 1 hour. The blocking buffer was removed, the plates washed, and various concentrations of inhibitor were added in a 20 μl volume to the wells. 60 μl of the appropriate substrate mix was then added. Substrate mixes were prepared as described in Table 2:
(§3) Following addition of the substrate mix, 20 μl of the test protein tyrosine kinase (in 1× assay buffer) was added. Kinase reactions were incubated 30 min at 37° C., followed by washes in the Skatron plate washer. 100 μl of biotinylated PT-66 anti-phosphotyrosine monoclonal antibody (Sigma, St. Louis, Mo.) (diluted 1:4000 in 0.5% BSA, sterile-filtered TBS) was added to each well, and incubated for an additional 30 minutes at 37° C. […] The samples were then read at 450 nm in a plate reader.
A general note: ELISA stands for enzyme-linked immunosorbent assay.

Experiment [2] deals with IGFR (Insulin-like growth factor receptor) protein tyrosine kinase (Homo sapiens, UniProt P08069). Put plainly: poly (Glu, Tyr) 4:1 ELISA, IGFR. The protocol: as §1, §2, §3
Experiment [3] deals with T1, ZAP-70 (ζ-associated polypeptide of 70 kDa) protein tyrosine kinase (Homo sapiens, UniProt P43403).
T1 sequence (P43403 1-619): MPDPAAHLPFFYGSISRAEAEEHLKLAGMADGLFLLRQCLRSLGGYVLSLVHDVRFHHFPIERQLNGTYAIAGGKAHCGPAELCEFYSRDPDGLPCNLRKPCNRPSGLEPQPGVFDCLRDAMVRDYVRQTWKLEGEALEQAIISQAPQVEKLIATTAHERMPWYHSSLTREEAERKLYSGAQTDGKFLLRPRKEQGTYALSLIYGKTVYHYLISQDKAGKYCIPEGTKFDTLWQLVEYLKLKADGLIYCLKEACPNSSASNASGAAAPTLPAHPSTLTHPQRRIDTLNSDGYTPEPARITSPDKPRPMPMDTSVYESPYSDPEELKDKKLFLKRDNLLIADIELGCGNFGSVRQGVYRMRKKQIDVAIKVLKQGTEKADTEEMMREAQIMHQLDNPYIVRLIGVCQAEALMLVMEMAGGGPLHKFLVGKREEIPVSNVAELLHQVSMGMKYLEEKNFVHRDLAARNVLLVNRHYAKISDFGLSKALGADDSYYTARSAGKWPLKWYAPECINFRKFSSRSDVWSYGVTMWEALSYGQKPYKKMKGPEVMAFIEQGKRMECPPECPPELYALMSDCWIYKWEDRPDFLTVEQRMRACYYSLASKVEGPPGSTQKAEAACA
The experiment can be described thus: poly (Glu, Tyr) 4:1 ELISA, ZAP-70. On the procedure:
as §1, §2, §3

The mark [4] stands for this setting: ec-50 values ranging from hundreds of micromolar to no inhibition (data not shown).

Sequence of LCK (Lymphoid T-cell protein tyrosine kinase) (P06239 whole entry, species assumed): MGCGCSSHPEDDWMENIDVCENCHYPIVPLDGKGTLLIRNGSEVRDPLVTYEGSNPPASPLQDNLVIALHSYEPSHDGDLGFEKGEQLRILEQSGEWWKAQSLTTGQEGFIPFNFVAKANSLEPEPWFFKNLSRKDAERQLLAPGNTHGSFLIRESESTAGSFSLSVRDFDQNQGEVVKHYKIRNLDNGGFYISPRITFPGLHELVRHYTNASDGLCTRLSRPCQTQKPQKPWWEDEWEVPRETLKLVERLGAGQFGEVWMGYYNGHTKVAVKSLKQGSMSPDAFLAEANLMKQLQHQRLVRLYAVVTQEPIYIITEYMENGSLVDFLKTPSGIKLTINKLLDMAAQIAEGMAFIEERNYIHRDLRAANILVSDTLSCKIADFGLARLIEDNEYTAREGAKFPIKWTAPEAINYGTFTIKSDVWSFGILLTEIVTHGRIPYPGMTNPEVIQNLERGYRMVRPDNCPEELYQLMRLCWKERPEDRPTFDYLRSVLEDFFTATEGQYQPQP
Sequence of IGFR (Insulin-like growth factor receptor) protein tyrosine kinase (P08069 31-1367): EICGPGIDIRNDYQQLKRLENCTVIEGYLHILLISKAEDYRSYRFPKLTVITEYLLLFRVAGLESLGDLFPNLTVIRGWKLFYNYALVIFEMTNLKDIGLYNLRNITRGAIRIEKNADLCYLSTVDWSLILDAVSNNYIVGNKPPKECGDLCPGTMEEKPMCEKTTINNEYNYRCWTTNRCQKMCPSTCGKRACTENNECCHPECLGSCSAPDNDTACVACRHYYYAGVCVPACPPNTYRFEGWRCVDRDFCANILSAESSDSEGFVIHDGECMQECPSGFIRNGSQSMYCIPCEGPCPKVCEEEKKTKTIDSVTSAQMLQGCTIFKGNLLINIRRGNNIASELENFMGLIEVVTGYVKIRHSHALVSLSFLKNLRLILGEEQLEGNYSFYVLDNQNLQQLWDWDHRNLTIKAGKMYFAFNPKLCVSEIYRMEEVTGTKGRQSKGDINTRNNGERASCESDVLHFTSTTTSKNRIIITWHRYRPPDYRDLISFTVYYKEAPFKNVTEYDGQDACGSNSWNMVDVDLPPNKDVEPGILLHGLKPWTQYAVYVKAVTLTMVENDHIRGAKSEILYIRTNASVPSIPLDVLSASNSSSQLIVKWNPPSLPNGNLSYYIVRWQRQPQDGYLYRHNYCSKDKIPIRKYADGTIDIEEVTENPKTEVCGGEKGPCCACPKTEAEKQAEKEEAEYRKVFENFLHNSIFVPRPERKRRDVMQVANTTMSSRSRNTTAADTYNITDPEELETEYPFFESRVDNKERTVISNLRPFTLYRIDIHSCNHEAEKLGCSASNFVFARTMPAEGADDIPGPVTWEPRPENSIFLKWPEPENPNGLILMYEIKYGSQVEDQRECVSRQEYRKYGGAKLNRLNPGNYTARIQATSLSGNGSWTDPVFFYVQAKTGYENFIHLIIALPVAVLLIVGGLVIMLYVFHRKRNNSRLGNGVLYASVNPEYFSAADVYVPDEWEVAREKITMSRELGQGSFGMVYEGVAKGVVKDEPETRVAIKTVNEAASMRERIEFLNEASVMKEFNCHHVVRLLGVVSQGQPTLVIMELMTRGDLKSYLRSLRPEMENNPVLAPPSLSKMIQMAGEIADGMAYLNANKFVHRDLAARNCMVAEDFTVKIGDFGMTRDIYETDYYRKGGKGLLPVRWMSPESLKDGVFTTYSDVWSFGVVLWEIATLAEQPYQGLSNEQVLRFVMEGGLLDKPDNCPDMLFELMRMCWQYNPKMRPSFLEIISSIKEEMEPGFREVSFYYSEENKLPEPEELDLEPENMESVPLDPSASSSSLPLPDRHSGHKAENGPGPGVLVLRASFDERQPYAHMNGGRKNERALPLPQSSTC

Turning to `NC1=NC(=O)C(=C2CCNC(=O)c3[nH]ccc32)N1` [DBH, 4-(2-amino-4-oxo-2-imidazolin-5-ylidene)-4,5,6,7-tetrahydropyrrolo(2,3-c) azepine-8-one], in experiment [1] (setting [4]), the “Inhibition of LCK” value was “weak”. The “Inhibition of IGFR” value in experiment [2] (setting [4]) is given as “weak”. Besides, the “Inhibition of ZAP-70” value in experiment [3] (setting [4]) is “weak”.
Consider `NC1=NC(=O)C(=C2CCNC(=O)c3[nH]ccc32)N1` [DBH-2FB], for which the IC50 in experiment [1] (values for the four kinases range from 1971 μM to no inhibition, read-out: α-50 value for LCK) was ≥ 1970 µM; in experiment [2] (values for the four kinases range from 1971 μM to no inhibition, read-out: α-50 value for IGFR), ≥ 1970 µM; in experiment [3] (values for the four kinases range from 1971 μM to no inhibition, read-out: α-50 value for ZAP-70), ≥ 1970 µM.

Source of the values: US20040209799A1, “JAK/STAT pathway inhibitors and the uses thereof” (priority 2000, published 2004).
